Measured values reported in patent US6350585B1, “Reagent for assay of amylase isozyme activity” (priority 1998, dated 2002).

Tests used:
Assay type in all cases: biochemical
[1] = target: T1, P-type amylase (Calibzyme P) (Homo sapiens, UniProt P04746); assay: amylase isozyme activity assay with sodium azide as activator, P-type amylase sample; settings: for Percent residual enzyme activity: composition C/D
T1 construct: purchased International Reagents Corporation Calibzyme P
T1 sequence (P04746 16-511): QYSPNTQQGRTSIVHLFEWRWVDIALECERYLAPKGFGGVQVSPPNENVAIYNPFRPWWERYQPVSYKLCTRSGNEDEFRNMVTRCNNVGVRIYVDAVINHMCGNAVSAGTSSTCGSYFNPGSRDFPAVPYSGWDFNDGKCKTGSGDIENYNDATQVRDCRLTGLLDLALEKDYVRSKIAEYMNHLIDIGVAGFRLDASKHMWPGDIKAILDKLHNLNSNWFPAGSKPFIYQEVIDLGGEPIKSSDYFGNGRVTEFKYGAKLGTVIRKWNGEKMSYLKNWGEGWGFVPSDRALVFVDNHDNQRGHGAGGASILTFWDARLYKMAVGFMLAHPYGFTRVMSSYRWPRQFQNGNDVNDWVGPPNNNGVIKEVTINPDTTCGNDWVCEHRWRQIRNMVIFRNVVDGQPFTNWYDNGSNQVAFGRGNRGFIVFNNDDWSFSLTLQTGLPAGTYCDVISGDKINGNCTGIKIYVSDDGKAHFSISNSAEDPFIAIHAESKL
Description: S-type amylase inhibitory antibody 88E8 (manufactured by Roche Diagnostics K.K.) 20 mg/L
S-type amylase inhibitory antibody 66C7 (manufactured by Roche Diagnostics K.K.) 5 mg/L
(§1) Substrate (GalG2CNP (Example) or G3CNP (Comparative Example)) 2.6 mM
(2) P-type Amylase (Calibzyme P, Manufactured by International Reagents Corporation)
Each of the above-mentioned samples (0.05 mL) was added to respective reagent C and D (3 mL) and the mixtures were left standing at 37° C. for 3 minutes. Then, change in absorbance at 405 nm was assayed and change in absorbance per minute was calculated.
In the Tables, P is the case where P-type amylase was used as the sample, and S is the case where S-type amylase was used. The relative sensitivity of P and S is based on the change in absorbance of G3CNP as 100, wherein sodium azide was 300 mM.
Percent residual enzyme activity and relative sensitivity were calculated by the following formulas.
Percent residual enzyme activity (%)=(change in absorbance of composition C)/(change in absorbance of composition D)×100
Relative sensitivity (%)=(change in absorbance of composition D)/(change in absorbance of Comparative Example wherein sodium azide was 300 mM)×100

S-type amylase = target: T2, S-type amylase (Homo sapiens, UniProt P0DUB6); assay: S-type amylase activity assay of serum by subtraction (reagent F minus reagent G); settings: for S-type amylase activity value: change in absorbance with reagent F minus reagent G
T2 construct: Serum (1, 2 or 3); from tissue; host or cells: serum
T2 sequence (P0DUB6 16-511): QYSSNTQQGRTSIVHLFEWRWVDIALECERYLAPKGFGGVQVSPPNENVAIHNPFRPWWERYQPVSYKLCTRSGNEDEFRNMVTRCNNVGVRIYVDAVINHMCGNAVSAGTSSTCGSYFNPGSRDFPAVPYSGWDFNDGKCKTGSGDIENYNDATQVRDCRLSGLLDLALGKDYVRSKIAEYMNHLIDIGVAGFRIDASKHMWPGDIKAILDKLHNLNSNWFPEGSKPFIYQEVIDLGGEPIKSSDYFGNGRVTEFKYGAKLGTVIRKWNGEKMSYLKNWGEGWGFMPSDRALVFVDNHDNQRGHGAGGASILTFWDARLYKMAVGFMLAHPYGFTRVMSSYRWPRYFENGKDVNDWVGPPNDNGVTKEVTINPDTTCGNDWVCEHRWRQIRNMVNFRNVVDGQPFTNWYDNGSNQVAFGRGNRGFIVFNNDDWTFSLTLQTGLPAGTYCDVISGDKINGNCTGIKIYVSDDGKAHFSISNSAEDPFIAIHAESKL
Description: (§2) Potassium thiocyanate 140 mM
as §1
(§3) S-type amylase inhibitory antibody 88E8 (manufactured by Roche Diagnostics K.K.) 15 mg/L
(§4) S-type amylase inhibitory antibody 66C7 (manufactured by Roche Diagnostics K.K.) 1.25 mg/L
(1) Distilled Water(Blank)
Each of the above-mentioned reagents (0.05 mL) was added to the above reagent F (3 mL) and the mixtures were left standing at 37° C. for 3 minutes. Then, change in absorbance at 405 nm was assayed and change in absorbance per minute was calculated (change in absorbance a). The same procedure was repeated using reagent G and change in absorbance per minute was calculated (change in absorbance b). Then, change in absorbance b was subtracted from change in absorbance a to give change in absorbance c, which was converted to S-type amylase activity value at this composition using the molecular extinction coefficient of CNP.

P-type amylase = target: T3, P-type amylase (Homo sapiens, UniProt P04746); assay: P-type amylase activity assay of serum with reagent E; settings: composition E; for P-type amylase activity value: potassium thiocyanate 140 mM
T3 construct: Serum (1, 2 or 3); from tissue; host or cells: serum
T3 sequence (P04746 16-511): T1 sequence (P04746 16-511)
Description: Good buffer (pH 6.2) 50 mM
as §3, §4, §2, §1
(1) Distilled water (blank)
Each of the above-mentioned reagents (0.05 mL) was added to the above reagent E (3 mL) and the mixtures were left standing at 37° C. for 3 minutes. Then, change in absorbance at 405 nm was assayed and change in absorbance per minute was calculated. The obtained change in absorbance was converted to P-type amylase activity value at this composition using the molecular extinction coefficient of CNP.

O=[N+]([O-])c1ccc(O[C@H]2O[C@H](CO)[C@@H](O[C@H]3O[C@H](CO)[C@@H](O[C@H]4O[C@H](CO)[C@@H](O)[C@H](O)[C@H]4O)[C@H](O)[C@H]3O)[C@H](O)[C@H]2O)c(Cl)c1 [Example G3CNP, 2-chloro-4-nitrophenylmaltotrioside, reference compound]
Change in absorbance, Containing Antibody (Composition C) ([1]; sodium azide 0 mM): 9.4 mABS/min | Change in absorbance, Without antibody (Composition D) ([1]; sodium azide 0 mM): 9.4 mABS/min | Relative sensitivity ([1]; sodium azide 0 mM, G3CNP at 300 mM = 100): 20.6% | Percent residual enzyme activity ([1]; sodium azide 0 mM): 100.0% | Change in absorbance, Containing Antibody (Composition C) ([1]; sodium azide 30 mM): 19.8 mABS/min | Change in absorbance, Without antibody (Composition D) ([1]; sodium azide 30 mM): 20.5 mABS/min | Relative sensitivity ([1]; sodium azide 30 mM, G3CNP at 300 mM = 100): 45.0% | Relative sensitivity ([1]; sodium azide 30 mM, G3CNP at 300 mM = 100, listed as Comparative Example 2): about 45% | Percent residual enzyme activity ([1]; sodium azide 30 mM): 96.6% | Change in absorbance, Containing Antibody (Composition C) ([1]; sodium azide 60 mM): 26.3 mABS/min | Change in absorbance, Without antibody (Composition D) ([1]; sodium azide 60 mM): 26.0 mABS/min | Relative sensitivity ([1]; sodium azide 60 mM, G3CNP at 300 mM = 100): 57.0% | Percent residual enzyme activity ([1]; sodium azide 60 mM): 101.2% | Change in absorbance, Containing Antibody (Composition C) ([1]; sodium azide 90 mM): 31.8 mABS/min | Change in absorbance, Without antibody (Composition D) ([1]; sodium azide 90 mM): 32.0 mABS/min | Relative sensitivity ([1]; sodium azide 90 mM, G3CNP at 300 mM = 100): 70.2% | Percent residual enzyme activity ([1]; sodium azide 90 mM): 99.4% | Change in absorbance, Containing Antibody (Composition C) ([1]; sodium azide 120 mM): 35.3 mABS/min | Change in absorbance, Without antibody (Composition D) ([1]; sodium azide 120 mM): 33.7 mABS/min | Relative sensitivity ([1]; sodium azide 120 mM, G3CNP at 300 mM = 100): 73.9% | Percent residual enzyme activity ([1]; sodium azide 120 mM): 104.7% | Change in absorbance, Containing Antibody (Composition C) ([1]; sodium azide 150 mM): 37.5 mABS/min | Change in absorbance, Without antibody (Composition D) ([1]; sodium azide 150 mM): 37.1 mABS/min | Relative sensitivity ([1]; sodium azide 150 mM, G3CNP at 300 mM = 100): 81.4% | Percent residual enzyme activity ([1]; sodium azide 150 mM): 101.1% | Change in absorbance, Containing Antibody (Composition C) ([1]; sodium azide 200 mM): 40.9 mABS/min | Change in absorbance, Without antibody (Composition D) ([1]; sodium azide 200 mM): 41.3 mABS/min | Relative sensitivity ([1]; sodium azide 200 mM, G3CNP at 300 mM = 100): 90.6% | Percent residual enzyme activity ([1]; sodium azide 200 mM): 99.0% | Change in absorbance, Containing Antibody (Composition C) ([1]; sodium azide 250 mM): 43.6 mABS/min | Change in absorbance, Without antibody (Composition D) ([1]; sodium azide 250 mM): 42.8 mABS/min | Relative sensitivity ([1]; sodium azide 250 mM, G3CNP at 300 mM = 100): 93.9% | Percent residual enzyme activity ([1]; sodium azide 250 mM): 101.9% | Change in absorbance, Containing Antibody (Composition C) ([1]; sodium azide 300 mM): 45.4 mABS/min | Change in absorbance, Without antibody (Composition D) ([1]; sodium azide 300 mM): 45.6 mABS/min | Relative sensitivity ([1]; sodium azide 300 mM, G3CNP at 300 mM = 100): 100.0% | Percent residual enzyme activity ([1]; sodium azide 300 mM): 99.6% | S-type amylase activity value (S-type amylase; Serum 1): 23.4 IU/L | S-type amylase activity value (S-type amylase; Serum 2): 87.5 IU/L | S-type amylase activity value (S-type amylase; Serum 3): 71.9 IU/L | Blank, change in absorbance per minute (S-type amylase; distilled water as sample, compositions F and G): 0.0006 ABS/min | P-type amylase activity value (P-type amylase; Serum 1): 16.8 IU/L | P-type amylase activity value (P-type amylase; Serum 2): 106.3 IU/L | P-type amylase activity value (P-type amylase; Serum 3): 80.9 IU/L | Blank, change in absorbance per minute (P-type amylase; distilled water as sample): 0.0006 ABS/min
